Patent publication US20170182047A9, “Post-Translational Regulation of Catalytic Activities of Cytochrome P450 46A1 and Uses Thereof” (The Board of Regents of the University of Texas System, priority 2007, published 2017)
Where two headings read alike, the source gives them in different places.

Columns and labels:
full-length CYP46A1 = full-length CYP46A1 (Homo sapiens, UniProt Q9Y6A2); test: Inhibition/stimulation of cholesterol hydroxylase activity at fixed 43 μM test compound; type: biochemical; conditions: 2.7 μM cholesterol, 43 μM compound; FIG. 4A-4C
CYP11A1 = molecular target: T1, CYP11A1 (Bos taurus, UniProt P00189); test: Spectral binding assay of antifungal azoles; set-up: species or system bovine
T1 construct: Recombinant full-length human CYPs 46A1 and 27A1 and bovine CYP11A1 were expressed and purified; made in house
T1 sequence (P00189 40-520): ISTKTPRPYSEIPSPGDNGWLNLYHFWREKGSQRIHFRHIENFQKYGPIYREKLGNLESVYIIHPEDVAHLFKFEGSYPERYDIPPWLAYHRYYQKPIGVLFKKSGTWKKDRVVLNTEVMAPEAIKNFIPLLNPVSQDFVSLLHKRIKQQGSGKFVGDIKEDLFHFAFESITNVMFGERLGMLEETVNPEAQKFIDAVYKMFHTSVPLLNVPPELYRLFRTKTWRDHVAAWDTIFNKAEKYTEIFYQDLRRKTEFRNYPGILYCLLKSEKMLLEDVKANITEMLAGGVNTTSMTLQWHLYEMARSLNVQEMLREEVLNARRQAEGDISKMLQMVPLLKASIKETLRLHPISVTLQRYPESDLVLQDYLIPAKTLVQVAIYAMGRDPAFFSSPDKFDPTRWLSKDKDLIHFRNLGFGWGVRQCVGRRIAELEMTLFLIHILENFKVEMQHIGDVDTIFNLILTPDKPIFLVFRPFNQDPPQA
Procedure: (§1) Titrations of CYP46A1 were carried out in 50 mM potassium phosphate buffer (KPi), pH 7.2, containing 100 mM NaCl and 0.02% Cymal 6. CYPs 11A1 and 27A1 were in 50 mM KPi without any additives. Antifungal drugs were added from 0.2-5 mM stocks in 50% methanol. The apparent Kd and maximal absorbance change were estimated by non-linear least squares fitting using the quadratic form of the single-site binding equation (9).

CYP27A1 = molecular target: T2, CYP27A1 (Homo sapiens, UniProt Q02318); test: Spectral binding assay of antifungal azoles; conditions: up to 100 μM
T2 construct: Recombinant full-length human CYPs 46A1 and 27A1 and bovine CYP11A1 were expressed and purified; made in house
T2 sequence (Q02318 34-531): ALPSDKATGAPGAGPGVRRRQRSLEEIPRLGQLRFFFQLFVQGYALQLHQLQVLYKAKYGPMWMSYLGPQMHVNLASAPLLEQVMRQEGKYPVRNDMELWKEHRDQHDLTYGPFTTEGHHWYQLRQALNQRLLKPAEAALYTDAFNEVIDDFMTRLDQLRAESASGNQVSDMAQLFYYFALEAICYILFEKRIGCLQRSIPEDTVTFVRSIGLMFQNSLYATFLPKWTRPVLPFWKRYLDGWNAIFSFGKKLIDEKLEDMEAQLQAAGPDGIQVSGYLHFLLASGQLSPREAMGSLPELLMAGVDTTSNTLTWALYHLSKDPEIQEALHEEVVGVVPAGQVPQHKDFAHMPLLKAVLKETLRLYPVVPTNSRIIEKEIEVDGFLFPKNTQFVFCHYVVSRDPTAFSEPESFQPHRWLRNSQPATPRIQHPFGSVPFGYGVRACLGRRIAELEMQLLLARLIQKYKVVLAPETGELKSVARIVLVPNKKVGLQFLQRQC
Procedure: as §1

[1] = system: Cholesterol 24S-Hydroxylase (CYP46A1); test: Brain sterol levels in mice after intraperitoneal voriconazole; type: in vivo, C57/B6 J mice
Procedure: (§2) The mice were sacrificed by cervical dislocation.
Lipids were extracted from the brain according to Folch with some modifications. Approximately 10 mg of brain tissue was added to 1 ml of homogenization buffer (5 mM EDTA, 50 μg/ml butylated hydroxytoluene in phosphate-buffered saline, pH 7,4) in a clean glass tube, and the tissue was disrupted using a polytron homogeniser. Three milliliters of chloroform:methanol (2:1, v:v) were added to the homogenate and the vials were mixed by vortexing. Samples were centrifuged at 10,000 g for 10 min. The organic phase was transferred to a new vial. The aqueous phase was re-extracted as described previously three more times. The pooled organic phase was dried under stream of argon gas, and chloroform:methanol (2:1, v:v) added to the dried samples to achieve suitable concentration.

[2] = system: genes involved in cholesterol homeostasis; test: mRNA expression in mouse brain after voriconazole; type: in vivo, C57/B6 J mice; conditions: 5 daily i.p. injections 60 mg/kg
Procedure: as §2
Total RNA was obtained from brain and liver tissue using Trizol (Invitrogen, Carlsbad, Calif.). cDNA was synthesised from 2 μg of total RNA using Capacity cDNA ReverseTranscription Kit (Applied Biosystems, Foster City, Calif.). Steady-state mRNA levels were estimated using Taqman probes (primer sequences available on request). All assays were run on an ABI Prism 7000 Sequense Detection System (Applied Biosystems; Foster City, Calif.). Estimation of a relative gene expression was performed using the comparative threshold cycle method, using hypoxathine-guanine phosphoribosyl transferase as endogenous control.

CYP46A1 = CYP46A1 (Homo sapiens, UniProt Q9Y6A2); test: In vitro IC50 and Ki for CYP46A1-catalysed hydroxylation; type: biochemical; set-up: Recombinant full-length human CYPs 46A1 and 27A1 and bovine CYP11A1 were expressed and purified; made in house; conditions: for IC50: 5.4 μM cholesterol
Procedure: Cholesterol hydroxylation by CYP46A1 was assayed for 20 min at 37° C. in 1 ml of 50 mM KPi, pH 7.2, containing 100 mM NaCl, 0.02% Cymal 6, 40 μg dilauroylglycerol-3-phosphatidylcholine and 2U of catalase. […] The enzymatic reaction was initiated by NADPH (final 1 mM) and terminated by vortexing with 2 ml of CH2Cl2. The organic phase was isolated, evaporated, dissolved in methanol, and subjected to HPLC. […] In addition, the Ki for cholesterol 24-hydroxylation was estimated assuming a model of competitive inhibition.

[3] = system: Cholesterol 24S-Hydroxylase (CYP46A1); test: Plasma oxysterol levels in voriconazole-treated mice
Procedure: Seven week old male C57/B6 J mice from Charles River were injected intraperitoneally with voriconazole (60 mg/kg or 75 mg/kg, corresponding to 0.6 and 0.75 ml, respectively, of the drug solution). The control mice were injected with the same solutions containing no voriconazole. The mice were sacrificed by cervical dislocation. Brain and liver were collected, snap frozen in liquid nitrogen and stored at −80° C.

[4] = 60 mg/kg i.p. once a day for 5 days

CYP46A1, sequence (Q9Y6A2 whole entry): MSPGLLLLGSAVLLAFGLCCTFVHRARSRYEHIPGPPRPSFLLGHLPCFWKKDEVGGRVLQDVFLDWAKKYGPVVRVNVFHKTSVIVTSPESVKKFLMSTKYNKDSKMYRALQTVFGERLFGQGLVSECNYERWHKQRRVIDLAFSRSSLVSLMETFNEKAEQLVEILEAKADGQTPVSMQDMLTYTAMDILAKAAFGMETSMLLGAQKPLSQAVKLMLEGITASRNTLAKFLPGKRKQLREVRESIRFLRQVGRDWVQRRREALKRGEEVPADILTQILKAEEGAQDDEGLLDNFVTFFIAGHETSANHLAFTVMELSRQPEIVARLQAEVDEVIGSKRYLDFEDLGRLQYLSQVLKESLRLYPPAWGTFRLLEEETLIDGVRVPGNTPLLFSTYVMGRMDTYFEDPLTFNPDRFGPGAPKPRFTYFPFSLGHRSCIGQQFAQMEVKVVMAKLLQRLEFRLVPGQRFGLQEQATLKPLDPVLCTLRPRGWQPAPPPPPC
full-length CYP46A1, sequence (Q9Y6A2 whole entry): as above

C[C@@H](c1ncncc1F)[C@](O)(Cn1cncn1)c1ccc(F)cc1F [voriconazole]
inhibition of cholesterol hydroxylation (in words) (full-length CYP46A1): significant inhibition | Kd (CYP11A1; 0.3 μM purified P450, read-out: apparent Kd): 4800 nM | binding weaker than that to CYP46A1 (CYP11A1; CYP11A1 vs CYP46A1): ~100 fold | spectral response (CYP27A1): only a very weak spectral shift was observed | effect on the levels of 27-hydroxycholesterol in the brain [1, 4]: no effect | effect on the levels of cholesterol in the brain [1, 4]: no effect | level of lathosterol in the brain ([1]; 60 mg/kg i.p. once a day for 5 days, p<0.05): significantly reduced | reduction in the levels of 24S-hydroxycholesterol in the brain ([1]; 60 mg/kg i.p. once a day for 5 days, p=0.03): 37% | levels of 24S-hydroxycholesterol in the brain ([1]; different doses (60 or 75 mg/kg i.p.), six hours after the injection): appeared to reduce the levels of 24S-hydroxycholesterol | effect on levels of lathosterol in the brain ([1]; single 60 mg/kg i.p., 2 hours): no significant effect | effect on levels of total cholesterol in the brain ([1]; single 60 mg/kg i.p., 2 hours): no significant effect | reduction of levels of 24S-hydroxycholesterol in the brain ([1]; single 60 mg/kg i.p., 2 hours, not statistically significant (p>0.05)): 20% | brain levels of dehydrolanosterol ([1]; voriconazole-treated mice (controls 0.14+0.05)): 1.9+0.7 ng/mg tissue | brain levels of squalene ([1]; voriconazole-treated mice (controls 2.2+0.8), p=0.05): 1.7+0.6 ng/mg tissue | brain levels of lanosterol ([1]; voriconazole-treated mice (controls 6.1+2.0), p<0.001): 27+10 ng/mg tissue | effect on HMG CoA reductase mRNA levels [2]: significant suppressive effect | effect on expression of CYP46A1 mRNA [2]: no significant effect | effect on expression of HMG CoA synthase mRNA [2]: no significant effect | IC50 (CYP46A1; read-out: IC50 for cholesterol 24-hydroxylation): 22 nM | Ki (CYP46A1; estimated, competitive inhibition, cholesterol equal to the Km, read-out: Ki for cholesterol 24-hydroxylation): 11 nM | IC50 (CYP46A1; read-out: IC50 for 25- and 27-hydroxylations of 24S-hydroxycholesterol): 47 nM | plasma concentration of 24S-hydroxycholesterol ([3]; pool of plasma, voriconazole-treated mice (control 18.8)): 13.2 ng/mL | effect on plasma level of 27-hydroxycholesterol ([3]; voriconazole-treated mice): not significantly affected | plasma level of 27-hydroxycholesterol ([3]; voriconazole-treated mice (controls 52)): 46 ng/mL | suppression of plasma levels of 24S-hydroxycholesterol ([3]; vs control pool): about 30%
